Results published in US20230024461A1, “METHODS FOR DUAL DNA/PROTEIN TAGGING OF OPEN CHROMATIN” (Beth Israel Deaconess Medical Center, Inc., priority 2019, published 2023).

T1: PML-RARA oncogenic fusion protein (Homo sapiens, UniProt P10276+P29590)
T1 construct: PML portion (fusion partner, human Protein PML, P29590); endogenous in cells; host or cells: NB4 acute promyelocytic leukemia cells
T1 sequence (P29590+P10276 with tags, fused parts or gaps): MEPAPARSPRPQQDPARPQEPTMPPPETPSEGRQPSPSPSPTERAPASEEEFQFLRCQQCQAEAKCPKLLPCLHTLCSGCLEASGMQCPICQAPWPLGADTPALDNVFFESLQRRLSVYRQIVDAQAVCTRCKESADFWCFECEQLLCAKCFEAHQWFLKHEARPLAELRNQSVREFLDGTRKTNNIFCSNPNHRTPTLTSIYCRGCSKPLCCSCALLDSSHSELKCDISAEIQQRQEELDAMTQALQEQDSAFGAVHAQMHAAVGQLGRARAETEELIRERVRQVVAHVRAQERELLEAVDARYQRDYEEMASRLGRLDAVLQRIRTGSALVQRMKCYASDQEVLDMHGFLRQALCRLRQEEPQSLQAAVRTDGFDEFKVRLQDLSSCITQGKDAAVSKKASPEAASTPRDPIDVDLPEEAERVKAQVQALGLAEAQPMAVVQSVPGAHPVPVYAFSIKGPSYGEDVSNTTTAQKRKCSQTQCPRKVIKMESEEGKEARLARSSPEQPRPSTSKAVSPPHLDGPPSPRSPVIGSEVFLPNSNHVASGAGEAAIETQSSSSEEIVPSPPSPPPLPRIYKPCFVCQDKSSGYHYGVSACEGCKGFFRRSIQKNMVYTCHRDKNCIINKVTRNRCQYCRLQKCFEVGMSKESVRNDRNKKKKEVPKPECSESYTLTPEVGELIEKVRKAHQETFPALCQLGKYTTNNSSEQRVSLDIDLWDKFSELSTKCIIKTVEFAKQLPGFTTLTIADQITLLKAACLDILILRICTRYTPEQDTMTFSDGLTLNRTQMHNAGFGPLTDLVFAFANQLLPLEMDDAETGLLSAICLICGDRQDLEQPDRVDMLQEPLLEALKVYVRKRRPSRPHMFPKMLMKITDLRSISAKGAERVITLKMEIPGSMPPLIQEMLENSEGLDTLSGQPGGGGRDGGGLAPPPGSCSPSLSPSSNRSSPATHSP

B1: APEX2-F: FLAG-tagged APEX2 peroxidase alone, negative control probe; amino acid SEQ ID NO: 21 (protein)
chain: MGKSYPTVSADYQDAVEKAKKKLRGFIAEKRCAPLMLRLAFHSAGTFDKGTKTGGPFGTIKHPAELAHSANNGLDIAVRLLEPLKAEFPILSYADFYQLAGVVAVEVTGGPKVPFHPGREDKPEPPPEGRLPDPTKGSDHLRDVFGKAMGLTDQDIVALSGGHTIGAAHKERSGFEGPWTSNPLIFDNSYFTELLSGEKEGLLQLPSDKALLSDPVFRPLVDKYAADEDAFFADYAEAHQKLSELGFADADYKDDDDK
modifications: FLAG tag

Experiments:
[1] = system: NB4 cells; test: iDAPT-MS of NB4 nuclei, ATRA versus DMSO; assay type: cell-based, human; conditions: TP3 probe
Procedure: DNA and protein tagging by iDAPT. All iDAPT proteomic labeling assays were performed as described below unless indicated otherwise. 2.5 μmol MEDS-A/B, 2 μmol enzyme, and 1 μmol hemin chloride per channel were incubated at room temperature for 1 hour. 1e7 cells per sample were washed (500×g, 5 minutes, 4° C.), lysed and triturated in 100 μL LB1 (10 mM Tris-HCl pH 7.5, 10 mM NaCl, 3 mM MgCl2, 1% BSA, 0.01% digitonin, 0.1% Tween-20, 0.1% NP-40, and 1× cOmplete EDTA-free protease inhibitor cocktail [Roche]) for 3 minutes, and subsequently supplemented with an additional 1 mL of LB2 (10 mM Tris-HCl pH 7.5, 10 mM NaCl, 3 mM MgCl2, 1% BSA, 0.1% Tween-20, and 1× protease inhibitor). Nuclei were pelleted (500×g, 10 minutes, 4° C.), resuspended with tagmentation reaction mixture (20% dimethylformamide, 10 mM MgCl2, 20 mM Tris-HCl pH 7.5, 33% 1×PBS, 1% BSA, 0.01% digitonin, 0.1% Tween-20, 500 μM biotin-phenol, 1× protease inhibitor, and 2 pmol enzyme equivalent of enzyme:DNA:heme complex in a total volume of 500 μL), and incubated at 37° C. for 30 minutes with agitation on a thermomixer (1,000 rpm). […] Lysates were clarified by centrifugation (15,000×g, 20 minutes, 4° C.), quantified via the detergent-compatible Bradford assay (Thermo Fisher Scientific), and subjected to either Western blotting or quantitative mass spectrometry analyses as described below. […]

[2] = system: NB4 cells; test: Granulocytic differentiation analysis (flow cytometry); assay type: cell-based, human; conditions: 1 μM ATRA, 48 hours, versus DMSO
Procedure: NB4 cells treated either with DMSO or 1 μM ATRA were washed with 2% fetal bovine serum prior to staining. Anti-human CD11b-PE-Cy7 antibody conjugate (Clone: ICRF44, Biolegend Catalog #301321; 1:100) and anti-human CD11c-APC antibody conjugate (Clone: B-1y6, BD Pharmingen #559877; 1:100) were incubated with samples for 20 minutes and then washed to remove excess antibody. Stained samples were analyzed on a Beckman Coulter CytoFLEX LX flow cytometer with the CytoExpert v2.3.1.22 software. Data were analyzed with FlowJo v10.0.7.

[3] = target: T1, PML-RARA oncogenic fusion protein; test: Western blotting analysis of the PML epitope; assay type: cell-based; conditions: NB4 cells, 48 hours ATRA versus DMSO
Procedure: Western blotting analysis. Whole cell or nuclear lysates were generated by resuspending cells or nuclei in RIPA (Boston BioProducts) supplemented with 1× cOmplete EDTA-free protease inhibitor cocktail (Roche). Lysates were incubated on ice for 30 minutes, sonicated via a Sonic Dismembrator 100 (Fisher Scientific) at setting 3 with 3-4 pulses of 15 seconds on/off on ice, and treated with benzonase for an additional 30 minutes on ice. Lysates were clarified by centrifugation (15,000×g, 20 minutes, 4° C.) and their concentrations quantified via the detergent-compatible Bradford assay (Thermo Fisher Scientific). All Western blots were run on NuPAGE 4-12% Bis-Tris protein gels (Thermo Fisher Scientific) and transferred to 0.2 μm nitrocellulose membranes (GE Healthcare). Membranes were blocked with 3% milk in PBS-T and incubated overnight with primary antibody and subsequently with secondary antibody after brief washing with PBS-T. Chemiluminescence was determined by applying ECL Western Blotting detection reagent (GE Healthcare) to membranes and imaging on an Amersham Imager 600 (GE Healthcare). Membranes were stripped with Restore PLUS Stripping Buffer (Thermo Fisher Scientific). Primary antibodies used were anti-FLAG M2 (mouse, Sigma-Aldrich, F1804, 1:2000), anti-PCNA (mouse, PC10, Santa Cruz Biotechnology sc-56, 1:1000), and anti-PML (rabbit, Bethyl A301-[MUT], 1:1000). […]

[4] = system: NB4 cells; test: Cell proliferation assay (CellTiter-Glo); assay type: cell-based, human; conditions: 1 μM ATRA, 48 hours, versus DMSO
Procedure: Cell proliferation assay. NB4 cells were seeded at a density of 5e5 cells/mL subjected to either DMSO or 1 μM ATRA. After 48 hours, 50 μL cell suspension was added to 50 μL CellTiter-Glo reagent, incubated for 10 minutes at room temperature, and assayed for luminescence with a SpectraMax iD3 plate reader.

[5] = Peroxidase activity assay (Amplex UltraRed/resorufin fluorescence); assay type: biochemical; conditions: 1 mM hydrogen peroxide, one minute
Procedure: Peroxidase activity assay. 5 pmol enzyme was incubated with 2.5 pmol hemin chloride (dissolved in DMSO, Cayman Chemical) for 1 hour at room temperature. This molar ratio was selected given reports of APEX2 maximal heme occupancy between 40-57%. Heme:protein complexes were then subjected to 50 μM Amplex UltraRed (Thermo Fisher Scientific) and 1 mM hydrogen peroxide for 1 minute at room temperature in a total volume of 100 μL with 1×PBS. Reactions were then quenched with 100 μL 2× quenching solution (10 mM Trolox, 20 mM sodium ascorbate, and 20 mM NaN3 in 1×PBS), and fluorescence intensities were measured on a SpectraMax iD3 plate reader, with excitation at 530 nm and emission at 590 nm.
Peroxidase activity assay. 5 pmol enzyme was incubated with 2.5 pmol hemin chloride (Cayman Chemical, dissolved in DMSO) for 1 hour at room temperature. This molar ratio was selected given reports of APEX2 maximal heme occupancy between 40-57%. […] Reactions were then quenched with 100 μL 2× quenching solution (10 mM Trolox, 20 mM sodium ascorbate, and 20 mM NaN3 in 1×PBS), and fluorescence intensities were measured on a SpectraMax iD3 plate reader with the SoftMax Pro v7.0.3 software, with excitation at 530 nm and emission at 590 nm.

[6] = system: HEK293T nuclei; test: iDAPT protein labeling, western blot of labeled nuclear lysates; assay type: biochemical, human; conditions: extracted HEK293T nuclei
Procedure: DNA and protein tagging by iDAPT. All iDAPT proteomic labeling assays were performed as described below unless indicated otherwise. 2.5 μmol MEDS-A/B, 2 μmol enzyme, and 1 μmol hemin chloride per channel were incubated at room temperature for 1 hour. 1e7 cells per sample were washed (500×g, 5 minutes, 4° C.), lysed and triturated in 100 μL LB1 (10 mM Tris-HCl pH 7.5, 10 mM NaCl, 3 mM MgCl2, 1% BSA, 0.01% digitonin, 0.1% Tween-20, 0.1% NP-40, and 1× cOmplete EDTA-free protease inhibitor cocktail [Roche]) for 3 minutes, and subsequently supplemented with an additional 1 mL of LB2 (10 mM Tris-HCl pH 7.5, 10 mM NaCl, 3 mM MgCl2, 1% BSA, 0.1% Tween-20, and 1× protease inhibitor). Nuclei were pelleted (500×g, 10 minutes, 4° C.), resuspended with tagmentation reaction mixture (20% dimethylformamide, 10 mM MgCl2, 20 mM Tris-HCl pH 7.5, 33% 1×PBS, 1% BSA, 0.01% digitonin, 0.1% Tween-20, 500 μM biotin-phenol, 1× protease inhibitor, and 2 pmol enzyme equivalent of enzyme:DNA:heme complex in a total volume of 500 μL), and incubated at 37° C. for 30 minutes with agitation on a thermomixer (1,000 rpm). 5 μL of tagmentation mix was saved for quality assessment as described above for ATAC-seq/iDAPT-seq sample preparation. The remaining nuclear suspension was then washed 2× with 1×PBS supplemented with 500 μM biotin-phenol, 1% BSA, 0.1% Tween-20, and 1× protease inhibitor (3000×g, 5 minutes, 4° C.) and labeled with 1 mM hydrogen peroxide and 500 μM biotin-phenol for 1 minute in 1×PBS with 1× protease inhibitor in a volume of 500 μL. Peroxidation reactions were quenched with 500 μL 2× quenching buffer (10 mM Trolox, 20 mM sodium ascorbate, 20 mM NaN3, and 1× protease inhibitor in 1×PBS). Labeled nuclei were then pelleted, washed with 1× quenching buffer, resuspended in 500 μL RIPA containing protease inhibitors, and frozen at −80° C. Lysates were thawed on ice, sonicated via a Sonic Dismembrator 100 (Fisher Scientific, setting 3, 15 seconds, 4 pulses), and incubated on ice for 30 minutes after the addition of 1 μL benzonase (EMD Millipore). Lysates were clarified by centrifugation (15,000×g, 20 minutes, 4° C.), quantified via the detergent-compatible Bradford assay (Thermo Fisher Scientific), and subjected to either Western blotting or quantitative mass spectrometry analyses as described below. For NB4 cell analysis, an additional endogenous peroxidase blocking step was added after nuclear extraction and before tagmentation: nuclei were resuspended in 500 μL 1×PBS containing 1% BSA, 0.03% hydrogen peroxide, and 0.1% NaN3 and incubated on ice for 30 minutes. Nuclei were pelleted and washed 4× with 1×PBS/1% BSA (3000×g, 5 minutes, 4° C.). Residual hydrogen peroxide was monitored by colorimetric assessment of supernatant via Quantofix peroxides test stick (Sigma).
Western blotting analysis. Whole cell or nuclear lysates were generated by resuspending cells or nuclei in RIPA (Boston BioProducts) supplemented with 1× cOmplete EDTA-free protease inhibitor cocktail (Roche). […] Lysates were clarified by centrifugation (15,000×g, 20 minutes, 4° C.) and their concentrations quantified via the detergent-compatible Bradford assay (Thermo Fisher Scientific). […] Membranes were blocked with 3% milk in PBS-T and incubated overnight with primary antibody and subsequently with secondary antibody after brief washing with PBS-T. Chemiluminescence was determined by applying ECL Western Blotting detection reagent (GE Healthcare) to membranes and imaging on an Amersham Imager 600 (GE Healthcare). […]

Row | Molecule | enrichment of PU.1/SPI1, CEBPB, and CEBPE on open chromatin [1] | enrichment of RARA on open chromatin [1] | differentiation [2] | effect on PML-RARA oncogenic fusion protein [3] | proliferation (cell counts) [4] | peroxidase activity via resorufin fluorescence [5] | peroxidase-dependent biotin signal [6]
1 | CC1=C(/C=C/C(C)=C/C=C/C(C)=C/C(=O)O)C(C)(C)CCC1 [ATRA, All-trans retinoic acid] | positive enrichment | negative enrichment | granulocytic differentiation | degradation of the PML-RARA oncogenic fusion protein | decreased proliferation |  | 
2 | B1 |  |  |  |  |  | detected | low signal
